Among the data in patent US20260103471A1, “CYCLIC UREA THIAZOLYL COMPOUNDS FOR TREATMENT OF HSV” (Assembly Biosciences, Inc., priority 2022, published 2026) are EC50 values, retold here.

One assay concerns HSV-2 G strain. Nature of the assay: HSV-2 Antiviral Assay (Vero cells, cell viability). The note with it: Human alphaherpesvirus 2, Vero, 120 h, Vero cells, 160 TCID50 HSV-2 G strain, 5 days, cell viability. Type of assay: cell-based. An outline of the steps: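 Antiviral readout is survival of infected Vero cells: after 5 days at 37 °C with 160 TCID50 HSV-2 G strain plus serially diluted compound (8 points, 3-fold, 0.5% DMSO), WST-8 was added for 3 h and absorbance measured at 460/620 nm. Cells seeded at 1.0×10^4 per well.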
One may read the EC50 as the concentration at which the effect is half-maximal. Lower therefore signals an effect from little substance. Regarding `COCCCCCCCCCCNS(=O)(=O)c1sc(N2CCCN(c3ccc(-c4cc(F)ccc4F)cc3)C2=O)nc1C` [Compound 421], the EC50 is under 100 nM.
On the same count and under the same terms, with `Cc1nc(N2CCCN(c3ccc(-c4cccc5c4C(F)(F)CO5)cc3)C2=O)sc1S(N)(=O)=O` [Compound 264] the figure was under 100 nM.
In the case of `CSc1ccccc1-c1ccc(N2CCCN(c3nc(C)c(S(N)(=O)=O)s3)C2=O)cc1` [Compound 11], the EC50 was under 100 nM.
The same measure, in the same setting: under `Cc1nc(N2CCCN(c3ccc(-c4cc(F)ccc4F)cc3)C2=O)sc1S(=O)(=O)N[C@@H]1CC[C@@H](O)C1` [Compound 400] stands under 100 nM.
Take `Cc1nc(N2CCCN(c3ccc(-c4ccccc4C#CC4CC4)cc3)C2=O)sc1S(N)(=O)=O` [Compound 220]: the EC50 is under 100 nM.
The same measure, in the same setting: under `Cc1nc(N2CCCN(c3ccc(-c4cccc(N)n4)cc3)C2=O)sc1S(=O)(=O)NC1CC1` [Compound 410] stands under 100 nM; under `Cc1cc(O)cc(-c2ccc(N3CCCN(c4nc(C)c(S(N)(=O)=O)s4)C3=O)cc2)n1` [Compound 238], 1000 to 5000 nM; under `CCC[S@](=N)(=O)c1sc(N2CCCN(c3ccc(-c4cc(F)cc(F)c4F)cc3)C2=O)nc1C` (single isomer, unassigned) [Compound 425], under 100 nM.
The same measure, in the same setting: under `Cc1nc(N2CCCN(c3ccc(-c4cncc5c4cnn5C)cc3)C2=O)sc1S(N)(=O)=O` [Compound 288] stands 100 to 1000 nM.
The same measure, in the same setting: under `Cc1nc(N2CCCN(c3ccc(-c4ccccc4OC4CC4)cc3)C2=O)sc1S(N)(=O)=O` [Compound 200] stands 100 to 1000 nM; under `Cc1nc(N2C[C@@H](F)CN(c3ccc(-c4cc(F)ccc4F)cc3)C2=O)sc1S(N)(=O)=O` (single isomer, unassigned) [Compound 365], under 100 nM.
Compound `Cc1nc(N2C[C@@H](C)CN(c3ccc(-c4cc(F)ccc4F)cc3)C2=O)sc1S(N)(=O)=O` (single isomer, unassigned) [Compound 320] showed an EC50 of under 100 nM.
On the same count and under the same terms, under `Cc1nc(N2C[C@H](F)CN(c3ccc(-c4cc(F)ccc4F)cc3)C2=O)sc1S(=O)(=O)NCCO` (single isomer, unassigned) [Compound 414] stands under 100 nM; under `Cc1nc(N2CCCN(c3ccc(-c4cc(F)cc(C(F)F)c4F)cc3)C2=O)sc1S(N)(=O)=O` [Compound 217], under 100 nM.
Consider `CCC[S@@](=N)(=O)c1sc(N2CCCN(c3ccc(-c4cc(F)cc(F)c4F)cc3)C2=O)nc1C` (single isomer, unassigned) [Compound 424], for which the 50% effective concentration (EC50) was under 100 nM.
On the same count and under the same terms, under `Cc1nc(N2CCCN(c3ccc(-c4snc5ccc(-c6ccccc6)cc45)cc3)C2=O)sc1S(N)(=O)=O` [Compound 309] stands under 100 nM; under `Cc1nc(N2C[C@@H](C(F)(F)F)CN(c3ccc(-c4cc(F)ccc4F)cc3)C2=O)sc1S(N)(=O)=O` (single isomer, unassigned) [Compound 371], under 100 nM; under `Cc1nc(N2CC(C(=O)O)CN(c3ccc(-c4cc(F)ccc4F)cc3)C2=O)sc1S(N)(=O)=O` (stereo not shown) [Compound 380], 1000 to 5000 nM.
Same read-out and setting: under `Cc1nc(N2CCCN(c3ccc(-c4cc(F)cc5cc(C(N)=O)sc45)cc3)C2=O)sc1S(N)(=O)=O` [Compound 254] stands 100 to 1000 nM.
Compound `Cc1nc(N2CCCN(c3ccc(-c4ccccc4F)cc3)C2=O)sc1[S@@](C)(=N)=O` (single isomer, unassigned) [Compound 144] had an EC50 of 100 to 1000 nM.
`Cc1nc(N2CCCN(c3ccc(-c4ccccc4/C=C/C#N)cc3)C2=O)sc1S(N)(=O)=O` [Compound 20]: the EC50 fell in the range of 100 to 1000 nM.
Compound `Cc1nc(N2CCCN(c3ccc(-c4nccc5c4cnn5C)cc3)C2=O)sc1S(N)(=O)=O` [Compound 261] registered an EC50 of 100 to 1000 nM.
Same read-out and setting: with `Cc1nc(N2CCCN(c3ccc(-c4ccc(F)cc4F)cc3)C2=O)sc1S(N)(=O)=O` [Compound 187] the figure was 100 to 1000 nM; with `Cc1cc(Cl)c(F)c(-c2ccc(N3CCCN(c4nc(C)c(S(N)(=O)=O)s4)C3=O)cc2)n1` [Compound 236], under 100 nM.

Staying with this assay, now noted: Human alphaherpesvirus 2, Vero, 120 h, Vero cells, 5 days.
Compound `Cc1nc(N2CCN(c3ccc(-c4cc(F)cc5nsnc45)cc3)C2=O)sc1S(N)(=O)=O` [Example 314] registered an EC50 of 28 nM.
